According to patent US20080306166A1, “Compositions and Methods For Treatment of Disorders of Protein Aggregation” (priority 2004, published 2008):

Columns and labels:
Aβ oligomers = details: added pre-cond, positive control, previously shown; cited from earlier work
[1] = Pilot in vivo studies with myo-cyclohexanehexyl; details: data not shown
Excerpt: The TgCRND8 mice and non-transgenic littermates were assigned to sex- and age-matched cohorts that were then used to test the effectiveness of the cyclohexanehexyl stereoisomers as a therapeutic (with treatment delayed until five months of age and continued for one month until six months of age). […] The endpoints were cognitive function, brain Aβ levels, and neuropathology. […] Over the course of these experiments, observers were unaware of genotype or treatment group.

[2] = 6-18 grams/day/adult or 86-257 mg/Kg/day; cited from earlier work
Aβ = target: T1, Aβ (Homo sapiens, UniProt P05067); details: cited from earlier work
T1 construct: Inositol stereoisomers stabilize an oligomeric aggregate of Alzheimer amyloid beta peptide
T1 sequence (P05067 672-713 limits assumed): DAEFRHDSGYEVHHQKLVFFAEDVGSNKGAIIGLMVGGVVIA

Structure (SMILES)	production of Aβ oligomers (Aβ oligomers)	benefit in pilot in vivo studies [1]	toxicity in humans or animals [2]	effectiveness in prior in vitro studies (Aβ)
Oc1cccc(Nc2ccc(Nc3cccc(O)c3)nn2)c1 [RS0406]	reduces the production of oligomers			
O[C@H]1[C@H](O)[C@@H](O)[C@H](O)[C@@H](O)[C@H]1O [myo-cyclohexanehexyl, 1,2,3,5/4,6-(myo-) cyclohexanehexyl]		no significant benefit	no toxicity	only weakly effective
